Experiment: Peptide solubility in polyols estimated by visual observation of solutions
Format: physicochemical
Conditions: solvent propylene glycol
Text: Solubilities at various concentration ranges were estimated based on visual observations of solutions prepared at the indicated peptide concentration levels listed in Table II.

Measured: Peptide solubility at specified concentration level

C[C@@H](O)[C@@H]1NC(=O)[C@H](CCCCN)NC(=O)[C@@H](Cc2c[nH]c3ccccc23)NC(=O)[C@H](Cc2ccccc2)NC(=O)[C@@H](NC(=O)[C@H](N)Cc2ccccc2)CSSC[C@@H](C(=O)N[C@H](CO)[C@@H](C)O)NC1=O [Octreotide]
Soluble: 100 mg/mL | <10 mg/mL | at 10 mg/mL
